This is an account of results in US20050065189A1, “Thiazole derivatives as cannabinoid receptor modulators” (SOLVAY PHARMACEUTICALS B.V., priority 2003, published 2005).

Like-named read-outs stand apart in the source and are kept apart here.

Assay [1] deals with T1, human cannabinoid CB1 receptor (Homo sapiens, UniProt P21554).
T1 construct: expressed in transfected cells; host or cells: Chinese hamster ovary (CHO) cells, membrane preparation
As to the kind of experiment: In vitro affinity for human cannabinoid CB1 receptors ([3H]CP-55,940 radioligand binding, CHO cell membranes). On the procedure:
In vitro Affinity for Human Cannabinoid CB1 Receptors
The affinity of the compounds of the invention for cannabinoid CB1 receptors can be determined using membrane preparations of Chinese hamster ovary (CHO) cells in which the human cannabinoid CB1 receptor is stably transfected in conjunction with [^3H]CP-55,940 as radioligand. After incubation of a freshly prepared cell membrane preparation with the [^3H]-ligand, with or without addition of compounds of the invention, separation of bound and free ligand is performed by filtration over glassfiber filters. Radioactivity on the filter is measured by liquid scintillation counting.

The target in assay [2] is T2, human cannabinoid CB2 receptor (Homo sapiens, UniProt P34972).
T2 construct: expressed in transfected cells; host or cells: Chinese hamster ovary (CHO) cells, membrane preparation
As to the kind of experiment: In vitro affinity for human cannabinoid CB2 receptors ([3H]CP-55,940 radioligand binding, CHO cell membranes). On the procedure:
In Vitro Affinity for Human Cannabinoid CB2 Receptors
The affinity of the compounds of the invention for cannabinoid CB2 receptors can be determined using membrane preparations of Chinese hamster ovary (CHO) cells in which the human cannabinoid CB2 receptor is stably transfected in conjunction with [^3H]CP-55,940 as radioligand. After incubation of a freshly prepared cell membrane preparation with the [^3H]-ligand, with or without addition of compounds of the invention, separation of bound and free ligand is performed by filtration over glassfiber filters. Radioactivity on the filter is measured by liquid scintillation counting.

Setting [3] is: membranes of CHO cells stably transfected with human CB1, [3H]CP-55,940 radioligand, read-out: Receptor affinity Human CB1 pKi-value (converted).

T1 sequence (P21554 whole entry): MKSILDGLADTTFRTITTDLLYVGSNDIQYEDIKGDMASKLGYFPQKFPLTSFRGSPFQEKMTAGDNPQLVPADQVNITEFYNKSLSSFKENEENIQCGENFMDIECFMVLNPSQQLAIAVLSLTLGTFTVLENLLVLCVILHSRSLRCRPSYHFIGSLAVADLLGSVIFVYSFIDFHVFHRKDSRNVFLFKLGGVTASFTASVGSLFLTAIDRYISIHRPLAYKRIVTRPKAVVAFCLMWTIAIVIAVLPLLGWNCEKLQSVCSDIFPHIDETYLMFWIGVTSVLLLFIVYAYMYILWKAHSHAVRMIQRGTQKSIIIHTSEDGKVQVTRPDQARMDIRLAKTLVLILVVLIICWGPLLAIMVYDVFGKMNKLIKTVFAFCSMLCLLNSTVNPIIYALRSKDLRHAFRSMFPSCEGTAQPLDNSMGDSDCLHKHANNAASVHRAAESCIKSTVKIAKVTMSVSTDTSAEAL
T2 sequence (P34972 whole entry): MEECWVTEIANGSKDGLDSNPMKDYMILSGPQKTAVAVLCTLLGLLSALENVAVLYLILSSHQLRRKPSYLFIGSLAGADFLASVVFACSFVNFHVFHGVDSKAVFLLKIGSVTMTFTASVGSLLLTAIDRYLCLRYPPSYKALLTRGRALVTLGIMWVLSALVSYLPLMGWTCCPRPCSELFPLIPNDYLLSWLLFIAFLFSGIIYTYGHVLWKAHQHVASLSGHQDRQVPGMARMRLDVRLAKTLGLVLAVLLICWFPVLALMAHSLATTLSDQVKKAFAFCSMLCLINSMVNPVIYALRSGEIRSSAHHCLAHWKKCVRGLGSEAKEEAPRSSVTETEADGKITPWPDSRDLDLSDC

As for `CCCCC(=O)c1nc(-c2ccc(Cl)cc2Cl)c(-c2ccccc2)s1` [Example 1, 1-[4-(2,4-dichlorophenyl)-5-phenylthiazol-2-yl]pentan-1-one], in assay [1] (setting [3]), the Ki was 251 nM.
Take `CCCCCCC(=O)c1nc(-c2ccccc2Cl)c(-c2ccccc2)s1` [Example 4]: the Ki in assay [1] (setting [3]) is 158 nM.
On to `CCCCCc1nc(C(=O)NC2CCCCC2)sc1-c1ccccc1` [Example 11], for which the results for the Ki in assay [1] and in assay [2] were 251 nM and 20 nM, respectively.
With `CCCCCc1nc(C(=O)NC23CC4CC(CC(C4)C2)C3)sc1-c1ccccc1` [Example 9, N-(adamant-1-yl)-4-(n-pentyl)-5-phenylthiazole-2-carboxamide], the Ki is 15.8 nM in assay [1] (setting [3]) and 7.94 nM in assay [2] (membranes of CHO cells stably transfected with human CB2, [3H]CP-55,940 radioligand, read-out: Receptor affinity Human CB2 pKi-value (converted)).
